In the assay the target is T1, recombinant integrin α4β7 (Homo sapiens, UniProt P13612+P26010, DEL724-798).
T1 construct: purchased R&D Systems 5397-A3-050
T1 sequence (P13612 34-970 limits assumed): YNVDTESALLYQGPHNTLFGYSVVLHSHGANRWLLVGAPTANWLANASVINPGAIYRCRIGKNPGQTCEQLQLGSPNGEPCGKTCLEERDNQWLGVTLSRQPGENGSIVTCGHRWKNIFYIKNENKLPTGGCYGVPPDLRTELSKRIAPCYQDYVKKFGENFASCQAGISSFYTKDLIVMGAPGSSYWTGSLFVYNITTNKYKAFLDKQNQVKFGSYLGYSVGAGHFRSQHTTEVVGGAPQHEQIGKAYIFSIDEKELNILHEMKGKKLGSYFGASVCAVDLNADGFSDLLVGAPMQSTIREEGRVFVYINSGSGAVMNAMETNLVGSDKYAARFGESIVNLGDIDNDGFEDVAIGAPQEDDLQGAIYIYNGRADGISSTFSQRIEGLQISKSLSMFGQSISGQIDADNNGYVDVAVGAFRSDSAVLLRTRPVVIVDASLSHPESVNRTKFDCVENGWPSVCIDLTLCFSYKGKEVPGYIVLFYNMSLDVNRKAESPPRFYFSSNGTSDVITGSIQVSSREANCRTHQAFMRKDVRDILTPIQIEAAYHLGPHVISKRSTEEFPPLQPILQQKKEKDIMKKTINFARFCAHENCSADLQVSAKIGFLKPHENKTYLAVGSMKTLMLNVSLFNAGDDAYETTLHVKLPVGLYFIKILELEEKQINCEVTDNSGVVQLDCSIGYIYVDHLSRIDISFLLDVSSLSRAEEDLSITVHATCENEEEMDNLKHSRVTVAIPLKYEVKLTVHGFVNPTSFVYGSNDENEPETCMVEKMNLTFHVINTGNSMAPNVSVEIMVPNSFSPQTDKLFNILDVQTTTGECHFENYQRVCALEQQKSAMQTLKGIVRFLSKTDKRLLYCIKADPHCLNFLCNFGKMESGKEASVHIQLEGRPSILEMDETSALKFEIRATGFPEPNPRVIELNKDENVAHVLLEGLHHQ
T1 sequence (P26010 20-723 limits assumed): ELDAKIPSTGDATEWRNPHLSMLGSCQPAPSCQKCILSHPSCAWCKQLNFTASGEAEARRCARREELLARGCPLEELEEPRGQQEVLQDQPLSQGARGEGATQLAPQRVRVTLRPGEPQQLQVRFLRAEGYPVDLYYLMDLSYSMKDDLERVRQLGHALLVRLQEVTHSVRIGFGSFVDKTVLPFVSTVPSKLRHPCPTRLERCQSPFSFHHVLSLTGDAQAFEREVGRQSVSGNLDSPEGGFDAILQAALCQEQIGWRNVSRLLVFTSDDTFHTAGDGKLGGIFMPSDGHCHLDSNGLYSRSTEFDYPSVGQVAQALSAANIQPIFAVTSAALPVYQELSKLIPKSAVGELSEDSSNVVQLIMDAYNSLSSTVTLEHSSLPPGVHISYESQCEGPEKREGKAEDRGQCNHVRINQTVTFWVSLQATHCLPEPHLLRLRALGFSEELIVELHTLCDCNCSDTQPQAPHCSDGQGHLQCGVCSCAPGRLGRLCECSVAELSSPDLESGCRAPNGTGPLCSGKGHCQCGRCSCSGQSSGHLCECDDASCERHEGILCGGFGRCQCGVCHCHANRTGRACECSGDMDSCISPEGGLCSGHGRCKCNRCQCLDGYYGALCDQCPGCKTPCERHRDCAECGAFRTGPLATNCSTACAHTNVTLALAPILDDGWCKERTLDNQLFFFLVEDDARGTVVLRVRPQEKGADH
Put plainly: Integrin α4β7—MAdCAM-1 ELISA competition assay. In kind it is binding. The note with it: for ELISA Assay Ratio b1/b7: ratio of a4b1 to a4b7 ELISA IC50; for IC50: read-out: ELISA a4b7 Assay IC50.

Structures are written as SMILES.

Usually IC50 stands for the concentration that inhibits the measured activity by half. Consider `CC[C@H](C)[C@@H]1NC(=O)[C@H](CC(=O)O)NC(=O)[C@H](CC(C)C)NC(=O)C[C@@H](CCCCN)NC(=O)[C@H](Cc2ccccc2)NC(=O)[C@@H]2CCCN2[C@H](C(=O)NC(C)(C)C)[C@H](C)NC1=O` [Compound 220], for which the “ELISA Assay Ratio b1/b7” value stood at 18.2 and the IC50 turned out to be 96 nM. Consider `CC(C)C[C@@H]1NC(=O)C[C@H]2CCCN2C(=O)[C@H](Cc2ccc(CN)cc2)NC(=O)[C@@H]2CCCN2[C@H](C(=O)NC(C)(C)C)[C@H](C)NC(=O)[C@H]([C@@H](C)O)NC(=O)[C@H](CC(=O)O)NC1=O` [Compound 230], for which the IC50 amounted to 120 nM. For `CC(C)C[C@@H]1NC(=O)C[C@H](CCCCN)NC(=O)[C@H](Cc2ccc(CN)cc2)NC(=O)[C@@H]2CCCN2[C@H](C(=O)NC(C)(C)C)[C@H](C)NC(=O)[C@H](C(C)C)NC(=O)[C@H](CC(=O)O)NC1=O` [Compound 254], the “ELISA Assay Ratio b1/b7” value is recorded as 33.0 and the IC50 was found to be 55 nM. As for `CC(C)C[C@@H]1NC(=O)C[C@H](CCCCN)NC(=O)[C@H](Cc2cccc(I)c2)NC(=O)[C@@H]2CCCN2[C@H](C(=O)NC(C)(C)C)[C@H](C)NC(=O)[C@H]([C@@H](C)O)NC(=O)[C@H](CC(=O)O)NC1=O` [Compound 255], the IC50 came out at 43 nM. In the case of `COc1ccccc1-c1cccc(C[C@@H]2NC(=O)[C@@H]3CCCN3[C@H](C(=O)NC(C)(C)C)[C@H](C)NC(=O)[C@H]([C@@H](C)O)NC(=O)[C@H](CC(=O)O)NC(=O)[C@H](CC(C)C)NC(=O)C[C@H](CCCCN)NC2=O)c1` [Compound 257], the IC50 amounted to 58 nM.

In the case of `CC(C)C[C@@H]1NC(=O)C[C@H](CCCCN)NC(=O)[C@H](Cc2ccc(-c3ccccc3OC(F)(F)F)cc2)NC(=O)[C@@H]2CCCN2[C@H](C(=O)NC(C)(C)C)[C@H](C)NC(=O)[C@H]([C@@H](C)O)NC(=O)[C@H](CC(=O)O)NC1=O` [Compound 262], the IC50 came out at 80 nM. For `CC(C)C[C@@H]1NC(=O)C[C@H](CCCCN)NC(=O)[C@H](Cc2ccccc2)N(C)C(=O)[C@@H]2CCCN2[C@H](C(=O)NC(C)(C)C)[C@H](C)NC(=O)[C@H]([C@@H](C)O)NC(=O)[C@H](CC(=O)O)NC1=O` [Compound 264], the IC50 was 117 nM. `CC(C)C[C@@H]1NC(=O)C[C@H](CCCCN)NC(=O)[C@H](Cc2cccc(-c3ccc(F)c(F)c3)c2)NC(=O)[C@@H]2CCCN2[C@H](C(=O)NC(C)(C)C)[C@H](C)NC(=O)[C@H]([C@@H](C)O)NC(=O)[C@H](CC(=O)O)NC1=O` [Compound 267]: the IC50 worked out at 44 nM. With `Cc1cccc(C)c1-c1ccccc1C[C@@H]1NC(=O)[C@@H]2CCCN2[C@H](C(=O)NC(C)(C)C)[C@H](C)NC(=O)[C@H]([C@@H](C)O)NC(=O)[C@H](CC(=O)O)NC(=O)[C@H](CC(C)C)NC(=O)C[C@H](CCCCN)NC1=O` [Compound 272], the “ELISA Assay Ratio b1/b7” value came out at 58.1 and the IC50 is 41 nM. As for `Cc1noc(C)c1-c1ccccc1C[C@H]1NC(=O)[C@@H]2CCCN2[C@H](C(=O)NC(C)(C)C)[C@H](C)NC(=O)[C@H]([C@@H](C)O)NC(=O)[C@H](CC(=O)O)NC(=O)[C@H](CC(C)C)NC(=O)C[C@H](CCCCN)NC1=O` [Compound 276], the “ELISA Assay Ratio b1/b7” value was 106.2 and the IC50 turned out to be 134 nM.

On to `COc1cccc(Cl)c1-c1ccccc1C[C@@H]1NC(=O)[C@@H]2CCCN2[C@H](C(=O)NC(C)(C)C)[C@H](C)NC(=O)[C@H]([C@@H](C)O)NC(=O)[C@H](CC(=O)O)NC(=O)[C@H](CC(C)C)NC(=O)C[C@H](CCCCN)NC1=O` [Compound 279], for which the IC50 was 100 nM. On the same count and under the same terms, as for `CC(C)C[C@@H]1NC(=O)C[C@H](CCCCN)NC(=O)C2(CCc3ccccc3C2)NC(=O)[C@@H]2CCCN2[C@H](C(=O)NC(C)(C)C)[C@H](C)NC(=O)[C@H]([C@@H](C)O)NC(=O)[C@H](CC(=O)O)NC1=O` (stereo partly drawn) [Compound 282], the figure is 119 nM; as for `CC(C)C[C@@H]1NC(=O)C[C@H](CCCCN)NC(=O)[C@H](Cc2ccccc2-c2cc(C(F)(F)F)ccc2C(F)(F)F)NC(=O)[C@@H]2CCCN2[C@H](C(=O)NC(C)(C)C)[C@H](C)NC(=O)[C@H]([C@@H](C)O)NC(=O)[C@H](CC(=O)O)NC1=O` [Compound 286], 64 nM. Same read-out and setting: as for `CC(C)C[C@@H]1NC(=O)C[C@H](CCCCN)NC(=O)[C@H](Cc2ccccc2-c2cc(C(F)(F)F)ccc2C(F)(F)F)NC(=O)[C@@H]2CCCN2[C@H](C(=O)NC(C)(C)C)[C@H](C)NC(=O)[C@H]([C@@H](C)O)NC(=O)[C@H](CC(=O)O)NC1=O` [Compound 287], the figure is 84 nM; as for `CC(C)C[C@@H]1NC(=O)C[C@H](CCCCN)NC(=O)[C@H](Cc2ccccc2-c2cccnc2)NC(=O)[C@@H]2CCCN2[C@H](C(=O)NC(C)(C)C)[C@H](C)NC(=O)[C@H]([C@@H](C)O)NC(=O)[C@H](CC(=O)O)NC1=O` [Compound 292], 30 nM. Still for that read-out and setting: as for `CC(C)C[C@@H]1NC(=O)C[C@H](CCCCN)NC(=O)[C@H](Cc2ccccc2-c2ncccc2Br)NC(=O)[C@@H]2CCCN2[C@H](C(=O)NC(C)(C)C)[C@H](C)NC(=O)[C@H]([C@@H](C)O)NC(=O)[C@H](CC(=O)O)NC1=O` [Compound 294], the figure is 45 nM; as for `CC(C)C[C@@H]1NC(=O)C[C@H](CCCCN)NC(=O)[C@H](Cc2ccccc2-c2cccnc2Br)NC(=O)[C@@H]2CCCN2[C@H](C(=O)NC(C)(C)C)[C@H](C)NC(=O)[C@H]([C@@H](C)O)NC(=O)[C@H](CC(=O)O)NC1=O` [Compound 297], 37 nM. As for `COc1cccc(Cl)c1-c1cccc(C[C@@H]2NC(=O)[C@@H]3CCCN3[C@H](C(=O)NC(C)(C)C)[C@H](C)NC(=O)[C@H]([C@@H](C)O)NC(=O)[C@H](CC(=O)O)NC(=O)[C@H](CC(C)C)NC(=O)C[C@H](CCCCN)NC2=O)c1` [Compound 298], the IC50 turned out to be 76 nM.

For `CC(C)C[C@@H]1NC(=O)c2ccc(Br)c(c2)CNC(=O)[C@H](Cc2ccc(O)cc2)NC(=O)[C@@H]2CCCN2[C@H](C(=O)NC(C)(C)C)[C@H](C)NC(=O)[C@H]([C@@H](C)O)NC(=O)[C@H](CC(=O)O)NC1=O` [Compound 336], the “ELISA Assay Ratio b1/b7” value was 5.6 and the IC50 was 162 nM. Consider `C[C@@H]1NC(=O)[C@H]([C@@H](C)O)NC(=O)[C@H](CC(=O)O)NC(=O)[C@H](CC(C)(C)C)NC(=O)c2ccc(-c3ccnc4ccccc34)c(c2)CNC(=O)[C@@H]2CCCN2[C@@H]1C(=O)NC(C)(C)C` [Compound 355], for which the IC50 was found to be 48 nM. Same read-out and setting: the figure for `CC(C)C[C@@H]1NC(=O)c2cccc(c2)CN(Cc2ccccc2)C(=O)[C@@H]2CCCN2[C@H](C(=O)NC(C)(C)C)[C@H](C)NC(=O)[C@H]([C@@H](C)O)NC(=O)[C@H](CC(=O)O)NC1=O` [Compound 357] is 102 nM.

As to `CC(C)C[C@@H]1NC(=O)c2ccc(N3CCOCC3)c(c2)CNC(=O)[C@@H]2CCCN2[C@H](C(=O)NC(C)(C)C)[C@H](C)NC(=O)[C@H]([C@@H](C)O)NC(=O)[C@H](CC(=O)O)NC1=O` [Compound 379], the “ELISA Assay Ratio b1/b7” value was found to be 4.9 and the IC50 is 33 nM.

For `CC(C)C[C@@H]1NC(=O)c2ccc(N(C)C)c(c2)CNC(=O)[C@@H]2CCCN2[C@H](C(=O)NC(C)(C)C)[C@H](C)NC(=O)[C@H]([C@@H](C)O)NC(=O)[C@H](CC(=O)O)NC1=O` [Compound 380], the IC50 turned out to be 41 nM. Same read-out and setting: the figure for `CC(C)C[C@@H]1NC(=O)c2ccc(-c3cccc(CN)c3)c(c2)CNC(=O)[C@@H]2CCCN2[C@H](C(=O)NC(C)(C)C)[C@H](C)NC(=O)[C@H]([C@@H](C)O)NC(=O)[C@H](CC(=O)O)NC1=O` [Compound 382] is 12 nM.
